Experimental data reported in paper doi:10.1101/2025.07.20.665728 (bioRxiv, 2025).

Test system: C1R.MR1 cells
Assay: Endo H treatment and western blot of intracellular MR1
Format: cell-based
Details: C1R.MR1, 16 h; RF and catabolites 100 μM, Ac-6-FP 10 μM
Procedure: The downregulation of MR1 on the cell surface by the RF catabolites could be due to the depletion of the intracellular ER-resident MR1 pool, or by retention of MR1 in the ER, as shown for the DB28 ligand ([Salio et al., 2020]). To investigate this, C1R.MR1 cells were treated for 16 h with 100 μM of RF or RF catabolites, conditions which induce MR1 downregulation (Fig. 3A). Cells were lysed, and treated with endoglycosidase (Endo) H, to distinguish molecules that remain within the ER from those that have trafficked to the cell surface ([McWilliam et al., 2016]), then MR1 levels were assessed by immunoblotting (Fig. 3A).
Figure 3. […] S, Endo H–susceptible MR1; R, Endo H–resistant MR1. The Endo H–susceptible MR1 and Endo H–resistant MR1 fractions were quantified in at least two independent experiments. (b) Intracellular total MR1 level was also measured in C1R.MR1 cells by flow cytometry after treating the cells with the indicated ligands (100 μM) for 16h followed by permeabilization and staining with anti-MR1-PE (8F2.F9). Shown are the overlay histograms (top) and a bar chart depicting the geometric mean fluorescence intensity (gMFI) fold change of intracellular MR1 level (bottom) from three independent experiments performed in duplicates, with standard error (SEM) represented by the error bars. […]

Compound: Cc1cc2nc3c(=O)[nH]c(=O)nc-3n(C[C@H](O)[C@H](O)[C@H](O)CO)c2cc1C [RF, Riboflavin]
- Endo H-resistant MR1: Neither RF nor its catabolites induced any Endo H-resistant MR1
